In patent US4784944A, “Prothrombin time determining reagent and methods of using and preparing the same” (Behringwerke Aktiengesellschaft, priority 1984, dated 1988):
Starred links: 1 amine or outer side, 2 acyl side, 3 side chain; linkers in the order of their positions; H or OH if unused. Non-standard residues stand in square brackets, D forms with d. Residues, ends and D or L forms follow the SMILES beside them. *: point of attachment. Benzoyl(5-NH,2-NO2) = O=C(c1cc(N[*:1])ccc1[N+](=O)[O-])[*:2]; pNA = O=[N+]([O-])c1ccc(N*)cc1; Tos = Cc1ccc(S(=O)(=O)*)cc1

Columns and labels:
Assay type in all cases: biochemical
Thromboplastin A = assay: Hydrolysis of chromogenic substrates by thromboplastin A; details: Thromboplastin A 5%; substrate 50 μmol/l; after 92 hours at room temperature; 405 nm
Procedure: (§1) Difference in extinction after 92 hours at room temperature of a reagent prepared according to Example 1. The substrate concentration was 50 μmol/l, and the thromboplastins were dissolved in accordance with the statements of the manufacturer and added at a concentration of 5%.
(§2) 4 to 20 ml of human thromboplastin were added to 70 ml of an aqueous solution containing 5.844 g of NaCl, 1.47 g of CaCl2, 11.92 g of HEPES, 250 μg of polybrene® and 67.1 mg of H-D-Phe-Pro-Arg-ANBA-isopropylamide HCl in one liter, pH 7.6, and the mixture was freeze-dried.

Thromboplastin B = assay: Hydrolysis of chromogenic substrates by thromboplastin B; details: Thromboplastin B 5%; substrate 50 μmol/l; after 92 hours at room temperature; 405 nm
Procedure: as §1, §2

Thromboplastin C = assay: Hydrolysis of chromogenic substrates by thromboplastin C; details: Thromboplastin C 5%; substrate 50 μmol/l; after 92 hours at room temperature; 405 nm
Procedure: as §1, §2

Thromboplastin D = assay: Hydrolysis of chromogenic substrates by thromboplastin D; details: Thromboplastin D 5%; substrate 50 μmol/l; after 92 hours at room temperature; 405 nm
Procedure: as §1, §2

Thromboplastin E = assay: Hydrolysis of chromogenic substrates by thromboplastin E; details: Thromboplastin E 5%; substrate 50 μmol/l; after 92 hours at room temperature; 405 nm
Procedure: as §1, §2

Thromboplastin F = assay: Hydrolysis of chromogenic substrates by thromboplastin F; details: Thromboplastin F 5%; substrate 50 μmol/l; after 92 hours at room temperature; 405 nm
Procedure: as §1, §2

Thromboplastin G = assay: Hydrolysis of chromogenic substrates by thromboplastin G; details: Thromboplastin G 5%; substrate 50 μmol/l; after 92 hours at room temperature; 405 nm
Procedure: as §1, §2

[1] = system: thromboplastins of the state of the art; assay: Hydrolysis of chromogenic substrates by thromboplastins; details: for Stability of a reagent containing the substrate (in words): reagent with thromboplastin having proteolytic activity
Procedure: The substrate concentration was 50 μmol/l, and the thromboplastins were dissolved in accordance with the statements of the manufacturer and added at a concentration of 5%.

Compound	Difference in extinction (hydrolysis of chromogenic substrate) (Thromboplastin A)	Difference in extinction (hydrolysis of chromogenic substrate) (Thromboplastin B)	Difference in extinction (hydrolysis of chromogenic substrate) (Thromboplastin C)	Difference in extinction (hydrolysis of chromogenic substrate) (Thromboplastin D)	Difference in extinction (hydrolysis of chromogenic substrate) (Thromboplastin E)	Difference in extinction (hydrolysis of chromogenic substrate) (Thromboplastin F)	Difference in extinction (hydrolysis of chromogenic substrate) (Thromboplastin G)	Stability of a reagent containing the substrate (in words) [1]	Extent of hydrolysis by the thromboplastins (in words) ([1]; extinction at 405 nm, Table 1)
CCOC(=O)CNC(=O)c1cc(NC(=O)[C@H](CCCNC(=N)N)NC(=O)[C@@H]2CCCN2C(=O)[C@H](N)Cc2ccccc2)ccc1[N+](=O)[O-] [D-Phe-Pro-Arg-ANBA-Glycine ethyl ester] (H-[dF]PR[Benzoyl(5-NH,2-NO2)]G-OEt)	0,007	0,009	0,015	0,019	0,008	0,011	0,003	–	–
CC(C)NC(=O)c1cc(NC(=O)[C@H](CCCNC(=N)N)NC(=O)[C@@H]2CCCN2C(=O)[C@H](N)Cc2ccccc2)ccc1[N+](=O)[O-] [D-Phe-Pro-Arg-ANBA-isopropylamide, H-D-Phe-Pro-Arg-ANBA-isopropylamide]	0,006	0,016	0,010	0,013	0,011	0	0	stable for a considerably longer time	–
CCCCNC(=O)c1cc(NC(=O)[C@H](CCCNC(=N)N)NC(=O)[C@@H]2CCCN2C(=O)[C@H](N)Cc2ccccc2)ccc1[N+](=O)[O-] [D-Phe-Pro-Arg-ANBA-n-Butylamide]	0,021	0,023	0,019	0,013	0,030	0,023	0,012	–	–
CC(C)(C)CNC(=O)c1cc(NC(=O)[C@H](CCCNC(=N)N)NC(=O)[C@@H]2CCCN2C(=O)[C@H](N)Cc2ccccc2)ccc1[N+](=O)[O-] [D-Phe-Pro-Arg-ANBA-neopentylamide]	0,003	0,009	0,011	0,007	0,014	0,003	0,002	–	–
CC(C)C[C@H](N)C(=O)Nc1ccc([N+](=O)[O-])cc1 [Leu-pNA, reference compound]	0,974	0,681	0,721	0,593	0,871	0,536	1,124	–	–
NCCCC[C@H](NC(=O)c1ccccc1)C(=O)Nc1ccc([N+](=O)[O-])cc1 [N-α-Benzoyl-L-Lysine-pNA, reference compound]	0,319	0,525	0,433	0,402	0,372	0,198	0,503	–	–
C[C@H](NC(=O)CCC(=O)O)C(=O)N[C@@H](C)C(=O)N[C@@H](C)C(=O)Nc1ccc([N+](=O)[O-])cc1 [Suc-(Ala)3-pNA, reference compound]	0,211	0,324	0,248	0,411	0,178	0,310	0,202	–	–
CCOC(=O)CNC(=O)c1cc(NC(=O)[C@H](CCCNC(=N)N)NC(=O)[C@@H]2CCCN2C(=O)CNS(=O)(=O)c2ccc(C)cc2)ccc1[N+](=O)[O-] [Tos-Gly-Pro-Arg-ANBA-Glycine ethyl ester] (Tos-GPR[Benzoyl(5-NH,2-NO2)]G-OEt)	0,029	0,034	0,028	0,026	0,037	0,023	0,029	–	–
Cc1ccc(S(=O)(=O)NCC(=O)N2CCC[C@H]2C(=O)N[C@@H](CCCNC(=N)N)C(=O)Nc2ccc([N+](=O)[O-])c(C(=O)NC(C)C)c2)cc1 [Tos-Gly-Pro-Arg-ANBA-isopropylamide]	0,035	0,039	0,030	0,023	0,041	0,029	0,018	–	–
Cc1ccc(S(=O)(=O)NCC(=O)N2CCC[C@H]2C(=O)N[C@@H](CCCNC(=N)N)C(=O)Nc2ccc([N+](=O)[O-])cc2)cc1 [Tos-Gly-Pro-Arg-pNA, reference compound] (Tos-Gly-Pro-Arg-pNA)	0,190	0,143	0,115	0,137	0,123	0,116	0,149	stable for only a very short time	rapid consumption of the substrate
D-Phe-Pro-Arg-ANBA-Valine methyl ester	0,003	0,031	0,008	0,020	0	0	0,002	–	–
